Read-outs that look alike come from different tables or passages of the source.
Key:
Assay type in all cases: in vivo
[1] = tested on: Green Peach Aphid (Myzus persicae, MYZUPE); assay: Bioassays on Green Peach Aphid (GPA), foliar spray on cabbage seedlings; conditions: 72 h
Experimental: Certain molecules disclosed in this document were tested against GPA using procedures described in the following example. In the reporting of the results, the “GPA & YFM Rating Table” was used (See Table Section).
Cabbage seedlings grown in 3-inch pots, with 2-3 small (3-5 cm) true leaves, were used as test substrate. The seedlings were infested with 20-50 GPA (wingless adult and nymph stages) one day prior to chemical application. Four pots with individual seedlings were used for each treatment. Test molecules (2 mg) were dissolved in 2 mL of acetone/methanol (1:1) solvent, forming stock solutions of 1000 ppm test molecule. The stock solutions were diluted 5× with 0.025% Tween 20 in water to obtain the solution at 200 ppm test molecule. A hand-held aspirator-type sprayer was used for spraying a solution to both sides of […] leaves until runoff. Reference plants (solvent check) were sprayed with the diluent only containing 20% by volume of acetone/methanol (1:1) solvent. Treated plants were held in a holding room for three days at approximately 25° C. and ambient relative humidity (RH) prior to grading. Evaluation was conducted by counting the number of live aphids per plant under a microscope. Percent control was measured using Abbott's correction formula (W. S. Abbott, “A Method of Computing the Effectiveness of an Insecticide” J. Econ. Entomol. 18 (1925), pp. 265-267) as follows. Corrected % Control=100*(X−Y)/X where X=No. of live aphids on solvent check plants and Y=No. of live aphids on treated plants. The results are indicated in the table entitled “Table ABC: Biological Results” (See Table Section).

[2] = tested on: Beet Armyworm (Spodoptera exigua, LAPHEG); assay: Bioassays on Beet Armyworm (BAW), 128-well diet tray assay; conditions: Spodoptera exigua
Summary of the method: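 Larvae at second instar are exposed on dried, compound-treated diet (50 μg/cm^2, delivered in 90:10 acetone-water) in eight replicate wells. After five to seven days at 25° C., 14:10 light-dark, percent mortality in each well is scored and the eight wells averaged.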

[3] = tested on: Yellow Fever Mosquito (Aedes aegypti, AEDSAE); conditions: Table ABC: Biological Results; species YFM
Summary of the method: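 Compounds from 4000 ppm DMSO stocks were diluted in 90:10 water/acetone and dispensed into wells, then infested with about 1-day-old larvae in liver-powder water. Covered plates were held at room temperature for 3 days and each well was scored for mortality against a rating scale; six replicate plates per compound.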

[4] = tested on: Cabbage Looper (Trichoplusia ni, TRIPNI); assay: Bioassays on Cabbage Looper (CL), 128-well diet tray assay; conditions: Trichoplusia ni
Summary of the method: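 Each of eight wells receives artificial diet treated at 50 μg/cm^2 with the test molecule, then one to five second-instar larvae. Incubation runs five to seven days at 25° C with a 14:10 light-dark cycle under vented covers. Mortality is scored per well as a percentage and averaged.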

[5] = Table ABC: Biological Results, species GPA, read-out: GPA
[6] = Table ABC: Biological Results, species BAW, read-out: BAW
[7] = Table ABC: Biological Results, species CL, read-out: CL
[8] = Green Peach Aphid, rating class, read-out: GPA
[9] = Beet Armyworm, rating class, read-out: BAW
[10] = Cabbage Looper, rating class, read-out: CL

In the case of `Cc1cc(NC(=O)[C@H]2[C@H](c3ccc(F)c(Cl)c3)C2(Cl)Cl)cc(C(=O)Nc2ccc(F)cc2F)c1Cl` (relative stereo) [F1185, trans-2-Chloro-5-(2,2-dichloro-3-(3-chloro-4-fluorophenyl)cyclopropane-1-carboxamido)-N-(2,4-difluorophenyl)-3-methylbenzamide], the pest or weed control at 200 µg/mL [1, 5] is reported as 80 to 100%, the pest or weed control at 50 µg/cm2 [2, 6] is reported as 50 to 100% and the YFM [3] is reported as “A (80–100)”. For the same compound, the pest or weed control at 50 µg/cm2 [4, 7] was 50 to 100%.
In the case of `N#CCC(=O)Nc1c(F)ccc(NC(=O)c2cc(NC(=O)[C@H]3[C@H](c4ccc(F)c(Cl)c4)C3(Cl)Cl)ccc2Cl)c1F` [F1700, 2-Chloro-N-(3-(2-cyanoacetamido)-2,4-difluorophenyl)-5-((1R,3R)-2,2-dichloro-3-(3-chloro-4-fluorophenyl)cyclopropane-1-carboxamido)benzamide], the pest or weed control at 200 µg/mL [1, 8] is reported as 0 to 80%, the pest or weed control at 50 µg/cm2 [2, 9] is reported as 50 to 100% and the pest or weed control at 50 µg/cm2 [4, 10] is reported as 50 to 100%.
With `Nc1ccc(F)c(NC(=O)c2cc(NC(=O)[C@H]3[C@H](c4ccc(Cl)c(Cl)c4)C3(Cl)Cl)ccc2Cl)c1F` [F1250, N-(3-Amino-2,6-difluorophenyl)-2-chloro-5-((1R,3R)-2,2-dichloro-3-(3,4-dichlorophenyl)cyclopropane-1-carboxamido)benzamide] the pest or weed control at 200 µg/mL [1, 5] was 80 to 100%, the pest or weed control at 50 µg/cm2 [2, 6] was 50 to 100% and the YFM [3] was “A (80–100)”. It also gave a pest or weed control at 50 µg/cm2 [4, 7] of 50 to 100%.
Work on `CCOC(C)C(=O)Nc1c(F)ccc(NC(=O)c2cc(NC(=O)[C@H]3[C@H](c4ccc(F)c(Cl)c4)C3(Cl)Cl)ccc2Cl)c1F` (stereo partly drawn) [F1698, 2-Chloro-5-((1R,3R)-2,2-dichloro-3-(3-chloro-4-fluorophenyl)cyclopropane-1-carboxamido)-N-(3-(2-ethoxypropanamido)-2,4-difluorophenyl)benzamide] yielded a pest or weed control at 200 µg/mL [1, 8] of 0 to 80%, a pest or weed control at 50 µg/cm2 [2, 9] of 50 to 100% and a pest or weed control at 50 µg/cm2 [4, 10] of 50 to 100%.
`O=C(NNC(=O)c1cc(NC(=O)[C@H]2[C@H](c3cc(Cl)cc(Cl)c3)C2(Cl)Cl)ccc1Cl)Nc1ccccc1` (relative stereo) [F2537, trans-2-(2-Chloro-5-(2,2-dichloro-3-(3,5-dichlorophenyl)cyclopropane-1-carboxamido)benzoyl)-N-phenylhydrazine-1-carboxamide] was tested, and the pest or weed control at 200 µg/mL ([1]; Green Peach Aphid, Table ABC / ABC-DP rating, read-out: GPA rating) was 80 to 100%, the pest or weed control at 50 µg/cm2 ([2]; Beet Armyworm, Table ABC / ABC-DP rating, read-out: BAW rating) was 50 to 100% and the pest or weed control at 50 µg/cm2 ([4]; Cabbage Looper, Table ABC / ABC-DP rating, read-out: CL rating) was 50 to 100%.
For `Cc1c(Cl)cc(NC(=O)[C@H]2[C@H](c3ccc(F)c(Cl)c3)C2(Cl)Cl)cc1C(=O)Nc1ccc(F)cc1F` (relative stereo) [F1190, trans-3-Chloro-5-(2,2-dichloro-3-(3-chloro-4-fluorophenyl)cyclopropane-1-carboxamido)-N-(2,4-difluorophenyl)-2-methylbenzamide], the pest or weed control at 200 µg/mL [1, 5] was 80 to 100%, the pest or weed control at 50 µg/cm2 [2, 6] was 50 to 100% and the pest or weed control at 50 µg/cm2 [4, 7] was 50 to 100%.
In the case of `CC(=O)Nc1cc(F)c(NC(=O)c2cc(NC(=O)[C@H]3[C@H](c4ccc(Cl)c(Cl)c4)C3(Cl)Cl)ccc2Cl)c(F)c1` [F1262, N-(4-Acetamido-2,6-difluorophenyl)-2-chloro-5-((1R,3R)-2,2-dichloro-3-(3,4-dichlorophenyl)cyclopropane-1-carboxamido)benzamide], the pest or weed control at 200 µg/mL [1, 5] is reported as 80 to 100%, the pest or weed control at 50 µg/cm2 [2, 6] is reported as 50 to 100% and the pest or weed control at 50 µg/cm2 [4, 7] is reported as 50 to 100%.
`O=C(Nc1ccc(F)c(NC(=O)C(F)F)c1F)c1cc(NC(=O)[C@H]2[C@H](c3ccc(F)c(C(F)(F)F)c3)C2(Cl)Cl)ccc1F` [F1530, 5-((1R,3R)-2,2-Dichloro-3-(4-fluoro-3-(trifluoromethyl)phenyl)cyclopropane-1-carboxamido)-N-(3-(2,2-difluoroacetamido)-2,4-difluorophenyl)-2-fluorobenzamide] showed a pest or weed control at 200 µg/mL [1, 8] of 0 to 80%, a pest or weed control at 50 µg/cm2 [2, 9] of 50 to 100% and a pest or weed control at 50 µg/cm2 [4, 10] of 50 to 100%.
Compound `CC(=O)Nc1c(F)ccc(NC(=O)c2cc(NC(=O)[C@H]3[C@H](c4ccc(Cl)c(C(F)(F)F)c4)C3(Cl)Cl)ccc2Cl)c1F` [F1658, N-(3-Acetamido-2,4-difluorophenyl)-2-chloro-5-((1R,3R)-2,2-dichloro-3-(4-chloro-3-(trifluoromethyl)phenyl)cyclopropane-1-carboxamido)benzamide] has a pest or weed control at 200 µg/mL [1, 8] of 0 to 80%, a pest or weed control at 50 µg/cm2 [2, 9] of 50 to 100% and a pest or weed control at 50 µg/cm2 [4, 10] of 50 to 100%.
With `Nc1c(F)ccc(NC(=O)c2cc(NC(=O)[C@H]3[C@H](c4ccc(F)c(Cl)c4)C3(Cl)Cl)cc(F)c2Cl)c1F` [F1255, N-(3-amino-2,4-difluorophenyl)-2-chloro-5-((1R,3R)-2,2-dichloro-3-(3-chloro-4-fluorophenyl)cyclopropane-1-carboxamido)-3-fluorobenzamide] the pest or weed control at 200 µg/mL [1, 5] was 80 to 100%, the pest or weed control at 50 µg/cm2 [2, 6] was 50 to 100% and the pest or weed control at 50 µg/cm2 [4, 7] was 50 to 100%.
`CC(=O)Nc1ccc(F)c(NC(=O)c2cc(NC(=O)[C@H]3[C@H](c4cc(Cl)cc(Cl)c4)C3(Cl)Cl)cc(F)c2Cl)c1F` [F1505, N-(3-acetamido-2,6-difluorophenyl)-2-chloro-5-((1R,3R)-2,2-dichloro-3-(3,5-dichlorophenyl)cyclopropane-1-carboxamido)-3-fluorobenzamide] showed a pest or weed control at 200 µg/mL [1, 8] of 0 to 80%, a pest or weed control at 50 µg/cm2 [2, 9] of 50 to 100% and a pest or weed control at 50 µg/cm2 [4, 10] of 50 to 100%.
`O=C(Nc1c(F)cc(NC(=O)C(F)(F)F)cc1F)c1cc(NC(=O)[C@H]2[C@H](c3ccc(Cl)c(Cl)c3)C2(Cl)Cl)ccc1Cl` [F1261, 2-Chloro-5-((1R,3R)-2,2-dichloro-3-(3,4-dichlorophenyl)cyclopropane-1-carboxamido)-N-(2,6-difluoro-4-(2,2,2-trifluoroacetamido)phenyl)benzamide] gave a pest or weed control at 200 µg/mL [1, 5] of 80 to 100%, a pest or weed control at 50 µg/cm2 [2, 6] of 50 to 100% and a pest or weed control at 50 µg/cm2 [4, 7] of 50 to 100%.
`O=C(Nc1ccc(F)c(NC(=O)C(F)F)c1F)c1cc(NC(=O)[C@H]2[C@H](c3ccc(F)c(Cl)c3)C2(Cl)Cl)cc(F)c1Cl` [F1256, 2-Chloro-5-((1R,3R)-2,2-dichloro-3-(3-chloro-4-fluorophenyl)cyclopropane-1-carboxamido)-N-(3-(2,2-difluoroacetamido)-2,4-difluorophenyl)-3-fluorobenzamide] showed a pest or weed control at 200 µg/mL [1, 5] of 80 to 100%, a pest or weed control at 50 µg/cm2 [2, 6] of 50 to 100% and a pest or weed control at 50 µg/cm2 [4, 7] of 50 to 100%.
With `COCC(=O)Nc1c(F)ccc(NC(=O)c2cc(NC(=O)[C@H]3[C@H](c4ccc(F)c(C(F)(F)F)c4)C3(Cl)Cl)ccc2Cl)c1F` [F1724, 2-Chloro-5-((1R,3R)-2,2-dichloro-3-(4-fluoro-3-(trifluoromethyl)phenyl)cyclopropane-1-carboxamido)-N-(2,4-difluoro-3-(2-methoxyacetamido)phenyl)benzamide] the pest or weed control at 200 µg/mL [1, 8] was 80 to 100%, the pest or weed control at 50 µg/cm2 [2, 9] was 50 to 100% and the pest or weed control at 50 µg/cm2 [4, 10] was 50 to 100%.
Work on `O=C(Nc1cc(NC(=O)C(Cl)Cl)c(F)cc1F)c1cc(NC(=O)[C@H]2[C@H](c3ccc(Cl)c(Cl)c3)C2(Cl)Cl)ccc1Cl` [F1244, 2-Chloro-5-((1R,3R)-2,2-dichloro-3-(3,4-dichlorophenyl)cyclopropane-1-carboxamido)-N-(5-(2,2-dichloroacetamido)-2,4-difluorophenyl)benzamide] yielded a pest or weed control at 200 µg/mL [1, 5] of 0 to 80%, a pest or weed control at 50 µg/cm2 [2, 6] of 50 to 100% and a pest or weed control at 50 µg/cm2 [4, 7] of 50 to 100%.
Compound `CC(=O)Nc1c(F)ccc(NC(=O)c2cc(NC(=O)[C@H]3[C@H](c4ccc(F)c(C(F)(F)F)c4)C3(Cl)Cl)ccc2F)c1F` [F1531, N-(3-acetamido-2,4-difluorophenyl)-5-((1R,3R)-2,2-dichloro-3-(4-fluoro-3-(trifluoromethyl)phenyl)cyclopropane-1-carboxamido)-2-fluorobenzamide] has a pest or weed control at 200 µg/mL [1, 8] of 0 to 80%, a pest or weed control at 50 µg/cm2 [2, 9] of 50 to 100% and a pest or weed control at 50 µg/cm2 [4, 10] of 50 to 100%.
